The source of these data is article PMC5218480 (PLoS ONE, 2017).

This experiment deals with MV-4-11 cells. Description: Gene expression microarray analysis (Affymetrix PrimeView) and GSEA. In kind it is cell-based, human. More on the design: RFU PODN (11730768_x_at) / Fold change /veh PODN (11730768_x_at) / RFU LINC00158 (11744669_a_at) / Fold change /veh LINC00158 (11744669_a_at) / RFU DUSP10 (11751237_a_at) / Fold change /veh DUSP10 (11751237_a_at) / RFU ID3 (11757404_x_at) / Fold change /veh ID3 (11757404_x_at) / RFU PLEKHG5 (11737974_s_at) / Fold change /veh PLEKHG5 (11737974_s_at) / RFU LRRC4B (11730491_at) / Fold change /veh LRRC4B (11730491_at) / RFU GIMAP4 (11747438_a_at) / Fold change /veh GIMAP4 (11747438_a_at) / RFU KRT8 (11758183_x_at) / Fold change /veh KRT8 (11758183_x_at) / RFU CNN1 (11734310_a_at) / Fold change /veh CNN1 (11734310_a_at) / RFU VPS37D (11726825_at) / Fold change /veh VPS37D (11726825_at) / RFU C10orf10 (11716522_x_at) / Fold change /veh C10orf10 (11716522_x_at) / RFU KIR2DL2 /// KIR2DL4 /// KIR2DL5A /// KIR2DL5B /// KIR2DS1 /// KIR2DS2 /// KIR2DS3 /// KIR2DS4 /// KIR3DL3 /// KIR3DL3 /// KIR3DS1 (11738374_at) / Fold change /veh KIR2DL2 /// KIR2DL4 /// KIR2DL5A /// KIR2DL5B /// KIR2DS1 /// KIR2DS2 /// KIR2DS3 /// KIR2DS4 /// KIR3DL3 /// KIR3DL3 /// KIR3DS1 (11738374_at) / RFU C1QL1 (11718748_at) / Fold change /veh C1QL1 (11718748_at) / RFU TMPRSS4 (11747572_a_at) / Fold change /veh TMPRSS4 (11747572_a_at) / RFU HAMP (11756126_x_at) / Fold change /veh HAMP (11756126_x_at) / RFU RNFT2 (11725882_a_at) / Fold change /veh RNFT2 (11725882_a_at) / RFU NR4A2 (11747474_a_at) / Fold change /veh NR4A2 (11747474_a_at) / RFU ABCC12 (11746883_a_at) / Fold change /veh ABCC12 (11746883_a_at) / RFU TMEM136 (11760407_x_at) / Fold change /veh TMEM136 (11760407_x_at) / RFU CLDN22 /// WWC2 (11732394_at) / Fold change /veh CLDN22 /// WWC2 (11732394_at) / RFU HLA-DPB1 (11760878_x_at) / Fold change /veh HLA-DPB1 (11760878_x_at) / RFU SPINT1 (11716480_a_at) / Fold change /veh SPINT1 (11716480_a_at) / RFU GAP43 (11754022_s_at) / Fold change /veh GAP43 (11754022_s_at) / RFU A4GNT (11735810_at) / Fold change /veh A4GNT (11735810_at) / RFU PRB3 (11715151_x_at) / Fold change /veh PRB3 (11715151_x_at) / RFU TUBB4B (11761932_at) / Fold change /veh TUBB4B (11761932_at) / RFU CAPN14 (11732068_a_at) / Fold change /veh CAPN14 (11732068_a_at) / RFU TMCC2 (11721928_a_at) / Fold change /veh TMCC2 (11721928_a_at) / RFU IRGQ (11745062_a_at) / Fold change /veh IRGQ (11745062_a_at) / RFU FAM174B (11720279_a_at) / Fold change /veh FAM174B (11720279_a_at) / RFU TMPRSS4 (11748680_a_at) / Fold change /veh TMPRSS4 (11748680_a_at) / RFU FAM212B (11763350_a_at) / Fold change /veh FAM212B (11763350_a_at) / RFU PLEKHG5 (11743358_a_at) / Fold change /veh PLEKHG5 (11743358_a_at) / RFU ZSCAN30 (11745921_a_at) / Fold change /veh ZSCAN30 (11745921_a_at) / RFU CMKLR1 (11741424_a_at) / Fold change /veh CMKLR1 (11741424_a_at) / RFU LOC101060620 /// MAPK8IP1 (11723275_at) / Fold change /veh LOC101060620 /// MAPK8IP1 (11723275_at) / RFU SPTSSB (11747773_x_at) / Fold change /veh SPTSSB (11747773_x_at) / RFU PRSS12 (11739890_at) / Fold change /veh PRSS12 (11739890_at) / RFU BIN1 (11741810_x_at) / Fold change /veh BIN1 (11741810_x_at) / RFU WNT11 (11732464_a_at) / Fold change /veh WNT11 (11732464_a_at) / RFU C10orf10 (11716521_a_at) / Fold change /veh C10orf10 (11716521_a_at) / RFU C5orf56 (11738089_at) / Fold change /veh C5orf56 (11738089_at) / RFU CYB561 (11721691_x_at) / Fold change /veh CYB561 (11721691_x_at) / RFU ANKRD19P (11752326_a_at) / Fold change /veh ANKRD19P (11752326_a_at) / RFU OR2T12 /// OR2T33 /// OR2T8 (11738714_s_at) / Fold change /veh OR2T12 /// OR2T33 /// OR2T8 (11738714_s_at) / RFU VCAN (11748164_a_at) / Fold change /veh VCAN (11748164_a_at) / RFU JSRP1 (11732532_at) / Fold change /veh JSRP1 (11732532_at) / RFU KRTAP10-11 (11738290_x_at) / Fold change /veh KRTAP10-11 (11738290_x_at) / RFU MYO3A (11730013_a_at) / Fold change /veh MYO3A (11730013_a_at) / RFU EBF3 (11725865_a_at) / Fold change /veh EBF3 (11725865_a_at) / RFU CAMK2N1 (11719241_x_at) / Fold change /veh CAMK2N1 (11719241_x_at) / RFU C5orf56 (11738088_a_at) / Fold change /veh C5orf56 (11738088_a_at) / RFU OLFML3 (11715873_a_at) / Fold change /veh OLFML3 (11715873_a_at) / RFU LOC100653217 /// NTM (11731650_a_at) / Fold change /veh LOC100653217 /// NTM (11731650_a_at) / RFU MAPK11 (11762145_a_at) / Fold change /veh MAPK11 (11762145_a_at) / RFU FIZ1 (11724087_x_at) / Fold change /veh FIZ1 (11724087_x_at) / RFU OASL (11726364_x_at) / Fold change /veh OASL (11726364_x_at) / RFU SOX15 (11748057_x_at) / Fold change /veh SOX15 (11748057_x_at) / RFU CD79A (11719716_a_at) / Fold change /veh CD79A (11719716_a_at) / RFU HIST1H1D (11736915_at) / Fold change /veh HIST1H1D (11736915_at) / RFU CASKIN2 (11723855_a_at) / Fold change /veh CASKIN2 (11723855_a_at) / RFU LOC730098 (11760151_x_at) / Fold change /veh LOC730098 (11760151_x_at) / RFU OR4N2 (11742367_at) / Fold change /veh OR4N2 (11742367_at) / RFU PRRT2 (11749266_a_at) / Fold change /veh PRRT2 (11749266_a_at) / RFU SNX32 (11753110_a_at) / Fold change /veh SNX32 (11753110_a_at) / RFU CDHR5 (11726645_a_at) / Fold change /veh CDHR5 (11726645_a_at) / RFU RCAN1 (11760418_a_at) / Fold change /veh RCAN1 (11760418_a_at) / RFU FAM167A (11723789_a_at) / Fold change /veh FAM167A (11723789_a_at) / RFU FAM26E (11764081_at) / Fold change /veh FAM26E (11764081_at) / RFU ISYNA1 (11749810_s_at) / Fold change /veh ISYNA1 (11749810_s_at) / RFU ACY1 (11761880_at) / Fold change /veh ACY1 (11761880_at) / RFU 11764098_at / Fold change /veh 11764098_at / RFU SAMD14 (11745864_x_at) / Fold change /veh SAMD14 (11745864_x_at) / RFU NPB (11741838_a_at) / Fold change /veh NPB (11741838_a_at) / RFU TMPRSS6 (11731388_a_at) / Fold change /veh TMPRSS6 (11731388_a_at) / RFU KRTAP10-2 (11738614_at) / Fold change /veh KRTAP10-2 (11738614_at) / RFU ARHGAP8 /// PRR5-ARHGAP8 (11727945_x_at) / Fold change /veh ARHGAP8 /// PRR5-ARHGAP8 (11727945_x_at) / RFU KRTAP5-7 /// NADSYN1 (11734609_at) / Fold change /veh KRTAP5-7 /// NADSYN1 (11734609_at) / RFU RASL12 (11751679_a_at) / Fold change /veh RASL12 (11751679_a_at) / RFU CDKN2B (11736163_a_at) / Fold change /veh CDKN2B (11736163_a_at) / RFU PRF1 (11729649_at) / Fold change /veh PRF1 (11729649_at) / RFU, ZNF638 /// ZNF638-IT1 / Fold change vs veh, ZNF638 /// ZNF638-IT1 / RFU, PANK3 / Fold change vs veh, PANK3 / RFU, SH3YL1 / Fold change vs veh, SH3YL1 / RFU, ZEB2 / Fold change vs veh, ZEB2 / RFU, NRIP1 / Fold change vs veh, NRIP1 / RFU, PTTG1IP / Fold change vs veh, PTTG1IP / RFU, CAPN2 / Fold change vs veh, CAPN2 / RFU, MED14 / Fold change vs veh, MED14 / RFU, SNORA58 / Fold change vs veh, SNORA58 / RFU, C1orf63 / Fold change vs veh, C1orf63 / RFU, LRRFIP1 / Fold change vs veh, LRRFIP1 / RFU, NDUFAF7 / Fold change vs veh, NDUFAF7 / RFU, SLC12A2 / Fold change vs veh, SLC12A2 / RFU, IBTK / Fold change vs veh, IBTK / RFU, ESF1 / Fold change vs veh, ESF1 / Fold change vs veh, TMEM50B / RFU, TAOK1 / Fold change vs veh, TAOK1 / RFU, ACBD3 / Fold change vs veh, ACBD3 / RFU, TMA16 / Fold change vs veh, TMA16 / RFU, RWDD3 / Fold change vs veh, RWDD3 / RFU, BCAT1 / Fold change vs veh, BCAT1 / RFU, EDEM3 / Fold change vs veh, EDEM3 / RFU, TMEM33 / Fold change vs veh, TMEM33 / RFU, WDR75 / Fold change vs veh, WDR75 / RFU, AHCTF1 / Fold change vs veh, AHCTF1 / RFU, TFRC / Fold change vs veh, TFRC / RFU, ZDHHC17 / Fold change vs veh, ZDHHC17 / RFU, NOM1 / Fold change vs veh, NOM1 / RFU, ARL8B / Fold change vs veh, ARL8B / RFU, ZBTB11 / Fold change vs veh, ZBTB11 / RFU, TAMM41 / Fold change vs veh, TAMM41 / RFU, KIAA1704 /// LOC100996395 / Fold change vs veh, KIAA1704 /// LOC100996395 / RFU, ING1 / Fold change vs veh, ING1 / RFU, TRMT61B / Fold change vs veh, TRMT61B / RFU, FUBP3 / Fold change vs veh, FUBP3 / RFU, TP53 / Fold change vs veh, TP53 / RFU, TNKS2 / Fold change vs veh, TNKS2 / RFU, ZFP14 / Fold change vs veh, ZFP14 / RFU, ACTR2 / Fold change vs veh, ACTR2 / RFU, PPP3R1 / Fold change vs veh, PPP3R1 / RFU, PIK3R1 / Fold change vs veh, PIK3R1 / RFU, HNRNPA1 / Fold change vs veh, HNRNPA1 / RFU, RNF170 / Fold change vs veh, RNF170 / RFU, ZNF28 / Fold change vs veh, ZNF28 / RFU, RNGTT / Fold change vs veh, RNGTT / RFU, OGT / Fold change vs veh, OGT / RFU, BRD1 / Fold change vs veh, BRD1 / RFU, MARS / Fold change vs veh, MARS / RFU, ZNF655 / Fold change vs veh, ZNF655 / RFU, FAHD1 / Fold change vs veh, FAHD1 / RFU, BDP1 / Fold change vs veh, BDP1 / RFU, LRRCC1 / Fold change vs veh, LRRCC1 / RFU, ARID1A / Fold change vs veh, ARID1A / RFU, ZNF146 / Fold change vs veh, ZNF146 / RFU, ZNF330 / Fold change vs veh, ZNF330 / RFU, GPN3 / Fold change vs veh, GPN3 / RFU, C9orf123 / Fold change vs veh, C9orf123 / RFU, N4BP2L2 / Fold change vs veh, N4BP2L2 / RFU, ARFIP1 / Fold change vs veh, ARFIP1 / RFU, FAM179B / Fold change vs veh, FAM179B / RFU, BCL10 / Fold change vs veh, BCL10 / RFU, UHRF1BP1L / Fold change vs veh, UHRF1BP1L / RFU, BET1 / Fold change vs veh, BET1 / RFU, CNOT2 / Fold change vs veh, CNOT2 / RFU, ZNF268 / Fold change vs veh, ZNF268 / Fold change vs veh, ZNF507 / RFU, DGCR2 / Fold change vs veh, DGCR2 / RFU, WDSUB1 / Fold change vs veh, WDSUB1 / Fold change vs veh, HSP90B1 /// MIR3652 / RFU, ADSS / Fold change vs veh, ADSS / RFU, GK / Fold change vs veh, GK / RFU, ZNF148 / Fold change vs veh, ZNF148 / RFU, TAF9 / Fold change vs veh, TAF9 / RFU, SLC1A5 / Fold change vs veh, SLC1A5 / RFU, SLMO2 / Fold change vs veh, SLMO2 / RFU, ABCC4 / Fold change vs veh, ABCC4 / RFU, LOC101060439 /// RAP1B / Fold change vs veh, LOC101060439 /// RAP1B / RFU, RFX7 / Fold change vs veh, RFX7 / RFU, GTPBP10 / Fold change vs veh, GTPBP10 / RFU, CNEP1R1 / Fold change vs veh, CNEP1R1 / RFU, BIVM-ERCC5 /// ERCC5 / Fold change vs veh, BIVM-ERCC5 /// ERCC5 / RFU, ILF3 / Fold change vs veh, ILF3 / RFU 11762660_at / Fold change /veh 11762660_at / RFU VCAN (11757783_s_at) / Fold change /veh VCAN (11757783_s_at) / RFU DDX43 (11728927_at) / Fold change /veh DDX43 (11728927_at) / RFU KRT8 (11758188_x_at) / Fold change /veh KRT8 (11758188_x_at) / RFU NKD1 (11759106_at) / Fold change /veh NKD1 (11759106_at) / RFU SRD5A1 (11742802_a_at) / Fold change /veh SRD5A1 (11742802_a_at) / RFU TPSAB1 /// TPSB2 (11721975_s_at) / Fold change /veh TPSAB1 /// TPSB2 (11721975_s_at) / RFU GSTM3 (11746129_a_at) / Fold change /veh GSTM3 (11746129_a_at) / RFU IL23R (11737362_x_at) / Fold change /veh IL23R (11737362_x_at) / RFU TMEM51 (11727254_a_at) / Fold change /veh TMEM51 (11727254_a_at) / RFU PIWIL2 (11732686_x_at) / Fold change /veh PIWIL2 (11732686_x_at) / RFU ORM1 (11744905_x_at) / Fold change /veh ORM1 (11744905_x_at) / RFU CCDC152 (11743942_at) / Fold change /veh CCDC152 (11743942_at) / RFU ECM1 (11717891_a_at) / Fold change /veh ECM1 (11717891_a_at) / RFU IL23R (11748794_a_at) / Fold change /veh IL23R (11748794_a_at) / RFU TNFAIP8L3 (11732012_x_at) / Fold change /veh TNFAIP8L3 (11732012_x_at) / RFU MBOAT4 (11741988_at) / Fold change /veh MBOAT4 (11741988_at) / RFU 11764193_at / Fold change /veh 11764193_at / RFU TMEM53 (11763286_at) / Fold change /veh TMEM53 (11763286_at) / RFU MAGEB2 (11727129_at) / Fold change /veh MAGEB2 (11727129_at) / RFU TMEM200A (11744735_a_at) / Fold change /veh TMEM200A (11744735_a_at) / RFU CCDC152 (11751479_a_at) / Fold change /veh CCDC152 (11751479_a_at) / RFU FAM211A (11726209_a_at) / Fold change /veh FAM211A (11726209_a_at) / RFU RGS16 (11746705_a_at) / Fold change /veh RGS16 (11746705_a_at) / RFU VCAN (11755009_s_at) / Fold change /veh VCAN (11755009_s_at) / RFU RHOB (11743442_s_at) / Fold change /veh RHOB (11743442_s_at) / RFU RGS16 (11720943_a_at) / Fold change /veh RGS16 (11720943_a_at) / RFU RGS16 (11720944_at) / Fold change /veh RGS16 (11720944_at) / RFU, VPS4B / Fold change vs veh, VPS4B / RFU, CREB1 / Fold change vs veh, CREB1 / RFU, DNAJC13 / Fold change vs veh, DNAJC13 / RFU, GNAQ / Fold change vs veh, GNAQ / RFU, CDK5R1 / Fold change vs veh, CDK5R1 / RFU, ZRANB3 / Fold change vs veh, ZRANB3 / RFU, CUL4A / Fold change vs veh, CUL4A / RFU, CCNY / Fold change vs veh, CCNY / RFU, UFL1 / Fold change vs veh, UFL1 / RFU, COG3 / Fold change vs veh, COG3 / RFU, DIAPH2 / Fold change vs veh, DIAPH2 / RFU, SKA2 / Fold change vs veh, SKA2 / RFU, AFF3 / Fold change vs veh, AFF3 / RFU, LMF1 / Fold change vs veh, LMF1 / RFU, IPO11 / Fold change vs veh, IPO11 / RFU, DFFB / Fold change vs veh, DFFB / RFU, FOXP1 / Fold change vs veh, FOXP1 / RFU, CARD8 / Fold change vs veh, CARD8 / RFU, STRN3 / Fold change vs veh, STRN3 / RFU, ADK / Fold change vs veh, ADK / RFU, RASSF2 / Fold change vs veh, RASSF2 / RFU, WIPF1 / Fold change vs veh, WIPF1 / RFU, LARP1B / Fold change vs veh, LARP1B / RFU, RASA1 / Fold change vs veh, RASA1 / RFU, RB1 / Fold change vs veh, RB1 / RFU, PPFIA1 / Fold change vs veh, PPFIA1 / RFU, MAT2A / Fold change vs veh, MAT2A / RFU, CCT5 / Fold change vs veh, CCT5 / RFU, WDR92 / Fold change vs veh, WDR92 / RFU, CUX1 / Fold change vs veh, CUX1 / RFU, TTC7A / Fold change vs veh, TTC7A / RFU, TMEM135 / Fold change vs veh, TMEM135 / RFU, DEPTOR / Fold change vs veh, DEPTOR / RFU, CPM / Fold change vs veh, CPM / RFU, DNAJB6 / Fold change vs veh, DNAJB6 / RFU, CACNA2D3 / Fold change vs veh, CACNA2D3 / RFU, DTX4 / Fold change vs veh, DTX4 / RFU, TFCP2 / Fold change vs veh, TFCP2 / RFU, GMCL1 /// GMCL1P1 / Fold change vs veh, GMCL1 /// GMCL1P1 / RFU, AEBP2 / Fold change vs veh, AEBP2 / RFU, SNHG1 /// SNORD22 /// SNORD25 /// SNORD26 /// SNORD27 /// SNORD28 /// SNORD29 /// SNORD31 / Fold change vs veh, SNHG1 /// SNORD22 /// SNORD25 /// SNORD26 /// SNORD27 /// SNORD28 /// SNORD29 /// SNORD31 / Fold change (Aza/veh), C12orf56 (ProbeSet 11735607_a_at) / Fold change (ACY-1035/veh), C12orf56 (ProbeSet 11735607_a_at) / Fold change (Aza/veh), FGFR1OP (ProbeSet 11751329_s_at) / Fold change (ACY-1035/veh), FGFR1OP (ProbeSet 11751329_s_at) / Fold change (Aza/veh), VPS36 (ProbeSet 11739960_a_at) / Fold change (ACY-1035/veh), VPS36 (ProbeSet 11739960_a_at) / RFU SYPL1 (11715823_x_at) / Fold change /veh SYPL1 (11715823_x_at) / RFU IGFBP7 (11715501_s_at) / Fold change /veh IGFBP7 (11715501_s_at) / RFU REEP3 (11722064_at) / Fold change /veh REEP3 (11722064_at) / RFU IGLL1 (11728026_x_at) / Fold change /veh IGLL1 (11728026_x_at): dose or concentration left out as unconfirmed. The following applies: ProbeSet 11723475_a_at; LIST B.

SMILES strings stand for the structures.

On to `Nc1ccc(-c2cccs2)cc1NC(=O)c1ccc2c(c1)cc(C1CC1)n2CCN1CCOCC1` [ACY-1035], for which the “RFU, TRMT61B” value amounted to 136.33 RFU.
